Consider five compounds from patent EP0552223B1, “USE OF BENZENE DERIVATIVES AS CHARGE TRANSFER MEDIATORS” (NOVO NORDISK A/S, priority 1990, dated 1992).

Where a name gives a salt, the structure may show the parent alone.

Data set [1] deals with T1, Glucose oxidase (GOD) (E.C.1.1.3.4.) (Aspergillus niger, UniProt P13006). The experiment in a line: Chronoamperometry of GOD-graphite/paraffin pasta electrode containing the mediator (glucose measurement). The data set is classed as biochemical. Particulars: for Working potential: Ag/AgCl ref.; for SD% of 100 measurement / Signal to noice ration: at 7mM glucose; for Linearity: glucose. How it is done:
(§1) Glucose oxidase (GOD) (E.C.1.1.3.4.) was immobilized on graphite particles by the following procedure: 10 g of graphite was oxidized in air at 100°C for 24 hours. The surface oxidized graphite particles were activated with 500 mg of 1-cyclohexyl-3-(2-morpholinoethyl)carbodiimide metho-p-toluenesulfonate in 100 ml of 0.1 M acetate buffer (pH 4.76) for 2 hours, then washed with distilled water until an approximately neutral pH value and dried. The activated graphite was mixed with 30 ml of 0.01 phosphate buffer (pH 7.3) containing 80,000 IU GOD and 4% glutaraldehyde for 16 hours at 4°C, dried and sieved through a 48 mesh to obtain uniform particles.
(§2) 1 g of paraffin oil containing 5% Methylene green (4-nitro-3,7-bis(dimethylamino)phenothiazine) was mixed carefully with 2 g of GOD modified graphite to a uniform pasta.
(§3) The pasta was filled into a plastic rod in which it was possible to cut a thin cross-sectional slice to introduce a new well-defined electrode area. Before each measurement, the electrode surface was renewed. The working electrode area used was 3 mm^2.
Chronoamperometry was preformed at 100 mV using the integrated current from 30 to 60 seconds after applying the potential. A linearity up to 40 mM glucose was obtained. The current was 500 nA/(sec*mM). The signal was not affected by the oxygen concentration in the solution. Reference pasta without Methylene green was not affected by different glucose concentrations.
(§4) Data in the table are obtained using the same procedure as in Example 1.

Data set [2] is described as follows: Redox potential of the mediator at GC electrode. The data set is classed as physicochemical. Particulars: Ag/AgCl ref.; in mV (unit assumed).
Text: as §4

The nature of data set [3]: Stability test of pasta rods with selected mediators stored at different temperatures. In kind it is physicochemical. Details: unit not given here. How it is done: The stability of a paste with a certain mediator can be determined using the following method:
The mediator is dissolved or mixed with paraffin and, thereafter, the enzyme coupled to graphite is added. The mixture is homogenized giving a paste. This paste is filled into electrode holders of plast giving so-called sticks. These sticks are tested using 0 and 10 mM glucose standards in order to characterize the activity of these sticks in relation to glucose. Thereafter, the paste containing sticks are stored at a constant temperature, for example, 4, 20, 35 and 54°C. After a certain period of time, for example 1 month, the sticks are tested using the 0 and 10 mM glucose standards and the activities measured are compared with the activity measured at originally.
Data are obtained using the same basis procedure as in Example 1. Rods with selected mediators were stored at different temperature to accelerate processes which could give new analytical performance.

The target in data set [4] is T1, Glucose oxidase (GOD) (E.C.1.1.3.4.). The experiment in a line: Cyclic voltammetry of GOD-graphite/paraffin pasta electrode containing the mediator. The data set is classed as biochemical. The conditions noted are these: Ag/AgCl ref. As to the method: • 1) A paste containing GOD-immobilized graphite, paraffin and mediator is prepared. If the mediator has a big solubility in paraffin then 10 mg of mediator is used per ml of paraffin. If the mediator has a little solubility in paraffin then 50 mg of crystals are added per ml of paraffin in order to obtain a homogeneous mixture before graphite is added. The paste obtained is filled into sticks. • 2) The activity of the paste is determined in a cyclic voltametri equipment where the current is measured as a function of the potential (CV sweep). Five concentrations of glucose are measured, i.e., 0, 5, 10, 15 and 20 mM. Based upon the results obtained, the following is evaluated: • a) whether the mediator can be oxidized and reduced by the graphite electrode, • b) whether the mediator can be reduced of GOD, • c) the optimal potential for the electorde to be used, • d) whether a lineary response as a function of the concentration of glucose can be obtained using the concentration of mediator in question, • e) whether the concentration of the mediator can be optimized. • 3) The response as a function of time at the optimal potential is to be measured. The time interval within which the response represents a stable response for the concentration of glucose is to be evaluated. • 4) The stability of the mediator in the paste question is determined.
as §1, §2, §3
In the study of the working electrode, an Ag auxiliary electrode and an Ag/AgCl reference electrode was used. In a cyclic voltammogram, a catalytic current from the reoxidation of the mediator was observed beginning at -50 mV and being stable between 50 and 400 mV. The current was proportional to the concentration of glucose used.
as §4

T1 sequence (P13006 17-605, species assumed): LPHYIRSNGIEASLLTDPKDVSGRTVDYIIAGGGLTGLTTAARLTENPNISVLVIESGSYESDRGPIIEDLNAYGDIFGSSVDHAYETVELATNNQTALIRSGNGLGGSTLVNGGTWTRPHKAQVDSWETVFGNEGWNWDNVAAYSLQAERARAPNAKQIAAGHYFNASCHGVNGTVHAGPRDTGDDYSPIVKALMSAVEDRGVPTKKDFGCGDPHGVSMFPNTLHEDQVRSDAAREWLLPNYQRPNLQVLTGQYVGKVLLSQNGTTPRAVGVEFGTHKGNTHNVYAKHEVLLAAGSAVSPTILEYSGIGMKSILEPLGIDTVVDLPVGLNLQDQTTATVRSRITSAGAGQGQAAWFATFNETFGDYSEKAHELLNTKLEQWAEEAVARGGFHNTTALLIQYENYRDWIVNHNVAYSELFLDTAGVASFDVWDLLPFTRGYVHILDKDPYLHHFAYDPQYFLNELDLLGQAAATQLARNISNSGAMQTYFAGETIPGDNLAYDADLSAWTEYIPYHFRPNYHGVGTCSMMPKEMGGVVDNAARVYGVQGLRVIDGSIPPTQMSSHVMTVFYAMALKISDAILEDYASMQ

As for `c1cc(N2CCCCC2)ccc1N1CCCCC1` [BPP, 1,4-dipiperidinobenzene], in data set [1], the Working potential was determined as 150. Also, in data set [1], the “SD% of 100 measurement” value is given as 3.5%. Besides, in data set [1], the “Signal to noice ration” value is given as 4.7. For the same compound, the “Linearity” value in data set [1] amounted to 20 mM. Moreover, in data set [2], the “Redoxpotential at GCElectrode” value is reported as 141. Moreover, the “activity of rod in stability test” value in data set [3] (4°C, listed as a, Time 0) is on record as 12.3; in data set [3] (4°C, listed as a, Time 78), 12.4; in data set [3] (4°C, listed as b, Time 0) it was 11.1; in data set [3] (4°C, listed as b, Time 78), 13.7; in data set [3] (20°C, listed as a, Time 0), 10.0; in data set [3] (20°C, listed as a, Time 78), 11.0. Moreover, the “activity of rod in stability test” value was found to be 10.5 in data set [3] (20°C, listed as b, Time 0); 11.1 in data set [3] (20°C, listed as b, Time 78); 9.1 in data set [3] (35°C, listed as a, Time 0); 8.7 in data set [3] (35°C, listed as a, Time 78); 10.6 in data set [3] (35°C, listed as b, Time 0); 10.4 in data set [3] (35°C, listed as b, Time 78). Moreover, the “activity of rod in stability test” value in data set [3] (54°C, listed as a, Time 0) is listed as 11.1; in data set [3] (54°C, listed as a, Time 78), 6.7; in data set [3] (54°C, listed as b, Time 0) it was 10.3; in data set [3] (54°C, listed as b, Time 78) it was 5.6. Also, the “Catalytic interval beginning at” value in data set [4] came to 0 mV.

The compound `c1cc(N2CCOCC2)ccc1N1CCCCC1` [MPP, 1-morpholino-4-piperidinobenzene] gave a Working potential in data set [1] of 100. Also, the “SD% of 100 measurement” value in data set [1] was 4.0%. Further, the “Signal to noice ration” value in data set [1] was determined as 10. In addition, in data set [1], the “Linearity” value was 20 mM. Further, in data set [2], the “Redoxpotential at GCElectrode” value is 166. In addition, the “activity of rod in stability test” value in data set [3] (4°C, listed as a, Time 0) was found to be 11.7; in data set [3] (4°C, listed as a, Time 70), 8.8; in data set [3] (4°C, listed as b, Time 0) it was 9.2; in data set [3] (4°C, listed as b, Time 70), 10.5; in data set [3] (20°C, listed as a, Time 0) it was 10.0; in data set [3] (20°C, listed as a, Time 70), 11.9. The “activity of rod in stability test” value is reported as 7.2 in data set [3] (20°C, listed as b, Time 0); 9.3 in data set [3] (20°C, listed as b, Time 70); 7.0 in data set [3] (35°C, listed as a, Time 0); 9.0 in data set [3] (35°C, listed as a, Time 70); 9.0 in data set [3] (35°C, listed as b, Time 0); 9.5 in data set [3] (35°C, listed as b, Time 70). The “activity of rod in stability test” value in data set [3] (54°C, listed as a, Time 0) is reported as 12.5; in data set [3] (54°C, listed as a, Time 70), 4.1; in data set [3] (54°C, listed as b, Time 0) it was 11.3; in data set [3] (54°C, listed as b, Time 70) it was 4.7. For the same compound, the “Catalytic interval beginning at” value in data set [4] is listed as 20 mV.

`c1cc(N2CCOCC2)ccc1N1CCOCC1` [BMP, 1,4-dimorpholinobenzene] returned a Working potential in data set [1] of 200. For the same compound, the “SD% of 100 measurement” value in data set [1] turned out to be 6.5%. Besides, the “Signal to noice ration” value in data set [1] stood at 5.6. In addition, in data set [1], the “Linearity” value is listed as 20 mM. Besides, the “Redoxpotential at GCElectrode” value in data set [2] is 246. For the same compound, the “activity of rod in stability test” value is 20.2 in data set [3] (4°C, listed as a, Time 0); 21.2 in data set [3] (4°C, listed as a, Time 72); 21.3 in data set [3] (4°C, listed as b, Time 0); 19.3 in data set [3] (4°C, listed as b, Time 72); 18.5 in data set [3] (20°C, listed as a, Time 0); 21.4 in data set [3] (20°C, listed as a, Time 72). Also, the “activity of rod in stability test” value in data set [3] (20°C, listed as b, Time 0) amounted to 20.5; in data set [3] (20°C, listed as b, Time 72) it was 23.3; in data set [3] (35°C, listed as a, Time 0) it was 20.0; in data set [3] (35°C, listed as a, Time 72), 18.0; in data set [3] (35°C, listed as b, Time 0) it was 16.7; in data set [3] (35°C, listed as b, Time 72), 20.3. In addition, the “activity of rod in stability test” value in data set [3] (54°C, listed as a, Time 0) came to 18.4; in data set [3] (54°C, listed as a, Time 72), 15.0; in data set [3] (54°C, listed as b, Time 0), 20.5; in data set [3] (54°C, listed as b, Time 72), 14.6. Besides, the “Catalytic interval beginning at” value in data set [4] was 50 mV.

For the compound `C[N+](C)=c1ccc2nc3c(ccc4ccccc43)oc-2c1` [MB, 7-dimethylamino-1,2-benzophenoxazinium salts], in data set [1], the Working potential is listed as 100, the “SD% of 100 measurement” value amounted to 6.5%, the “Signal to noice ration” value came out at 4.8 and the “Linearity” value worked out at 40 mM. In data set [2], the “Redoxpotential at GCElectrode” value was -175. In addition, the “Catalytic interval beginning at” value in data set [4] is reported as -50 mV.

For `CN(C)c1ccc(N2CCOCC2)cc1` [MDMP, 1-dimethylamino-4-morpholinobenzene], the Working potential in data set [1] turned out to be 100. Further, the “SD% of 100 measurement” value in data set [1] was 4.5%. Also, in data set [1], the “Signal to noice ration” value was found to be 8.3. The “Linearity” value in data set [1] stood at 20 mM. For the same compound, the “Redoxpotential at GCElectrode” value in data set [2] is given as 124. In addition, the “activity of rod in stability test” value in data set [3] (4°C, listed as a, Time 0) amounted to 17.2; in data set [3] (4°C, listed as a, Time 72) it was 16.9; in data set [3] (4°C, listed as b, Time 0), 16.2; in data set [3] (4°C, listed as b, Time 72), 18.1; in data set [3] (20°C, listed as a, Time 0) it was 16.4; in data set [3] (20°C, listed as a, Time 72), 17.4. Also, the “activity of rod in stability test” value in data set [3] (20°C, listed as b, Time 0) came to 16.0; in data set [3] (20°C, listed as b, Time 72), 15.4; in data set [3] (35°C, listed as a, Time 0), 15.4; in data set [3] (35°C, listed as a, Time 72) it was 15.7; in data set [3] (35°C, listed as b, Time 0), 13.4; in data set [3] (35°C, listed as b, Time 72) it was 14.5. In addition, the “activity of rod in stability test” value in data set [3] (54°C, listed as a, Time 0) turned out to be 17.4; in data set [3] (54°C, listed as a, Time 72), 6.9; in data set [3] (54°C, listed as b, Time 0) it was 14.4; in data set [3] (54°C, listed as b, Time 72), 8.5. Moreover, in data set [4], the “Catalytic interval beginning at” value is given as -20 mV.
